Source: paper PMC10761396, “Evaluation of new alternative methods for the identification of estrogenic, androgenic and steroidogenic effects: a comparative in vitro/in silico study” (Archives of Toxicology, 2023)

Tests used:
[1] = target: T1, human recombinant CYP19A1 (Homo sapiens, UniProt P11511); assay: Recombinant enzyme aromatase activity inhibition assay; format: biochemical; details: follow-up dose–response assay
T1 sequence (P11511 1-503): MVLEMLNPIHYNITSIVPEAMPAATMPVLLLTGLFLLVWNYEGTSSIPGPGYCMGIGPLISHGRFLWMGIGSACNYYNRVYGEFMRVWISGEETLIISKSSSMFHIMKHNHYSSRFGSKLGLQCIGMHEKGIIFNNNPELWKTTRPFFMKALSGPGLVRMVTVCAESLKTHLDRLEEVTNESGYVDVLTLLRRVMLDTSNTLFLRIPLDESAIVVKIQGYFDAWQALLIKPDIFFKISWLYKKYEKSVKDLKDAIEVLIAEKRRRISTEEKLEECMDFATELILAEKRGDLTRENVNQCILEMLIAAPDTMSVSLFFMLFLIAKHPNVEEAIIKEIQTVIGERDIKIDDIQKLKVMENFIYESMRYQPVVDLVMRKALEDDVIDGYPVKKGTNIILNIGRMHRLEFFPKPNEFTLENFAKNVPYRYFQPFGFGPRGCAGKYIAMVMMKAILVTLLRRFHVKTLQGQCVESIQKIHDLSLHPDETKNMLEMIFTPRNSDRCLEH
Procedure: An aromatase inhibition assay was also included in the in vitro assay panel. This enzyme – otherwise known as CYP19A1 - is responsible for converting androgens into estrogens (Blakemore and Naftolin 2016; Bulun 2014); therefore, chemicals that inhibit aromatase activity can lead to reduced estrogen production, which can affect reproductive and developmental processes (Kragie 2002; Tiboni and Ponzano 2016).
The metabolite, estradiol, was measured by time-resolved fluorescence according to the method described previously (Ji et al. 2014). Enzyme inhibition was calculated as a % inhibition of control enzyme activity.

human (non-selective) ER = assay: ER radioligand ([3H]estradiol) receptor-binding assay; details: for inhibition of control specific binding to the ER: single-dose screening, 10 µM
Procedure: The chemicals were tested for their ability to bind to different targets. […] Chemicals were incubated at 10 µM with cells overexpressing ER or AR for 24 h at 4°C, after which, the binding of the radiolabeled ligand ([^3H]estradiol for ER and [^3H]methyltrienolone for AR) was measured by liquid scintillation counting. An increase or decrease higher than 50% were considered to represent significant effects. Four chemicals were tested in additional incubations at several concentrations up to the maximum soluble concentration for IC50 or EC50 determination for the associated target. Receptor binding was calculated as a % inhibition of the binding of a radioactively labeled ligand specific for each target.
Each test chemical was tested in a single assay in duplicate.

ERα = target: T2, ERα (Homo sapiens, UniProt P03372); assay: (anti-)ERα CALUX receptor transactivation assay; format: cell-based; set-up: expressed in transfected cells; host or cells: CALUX cells (U2-OS is named only for the cytotoxicity CALUX)
T2 sequence (P03372 1-595): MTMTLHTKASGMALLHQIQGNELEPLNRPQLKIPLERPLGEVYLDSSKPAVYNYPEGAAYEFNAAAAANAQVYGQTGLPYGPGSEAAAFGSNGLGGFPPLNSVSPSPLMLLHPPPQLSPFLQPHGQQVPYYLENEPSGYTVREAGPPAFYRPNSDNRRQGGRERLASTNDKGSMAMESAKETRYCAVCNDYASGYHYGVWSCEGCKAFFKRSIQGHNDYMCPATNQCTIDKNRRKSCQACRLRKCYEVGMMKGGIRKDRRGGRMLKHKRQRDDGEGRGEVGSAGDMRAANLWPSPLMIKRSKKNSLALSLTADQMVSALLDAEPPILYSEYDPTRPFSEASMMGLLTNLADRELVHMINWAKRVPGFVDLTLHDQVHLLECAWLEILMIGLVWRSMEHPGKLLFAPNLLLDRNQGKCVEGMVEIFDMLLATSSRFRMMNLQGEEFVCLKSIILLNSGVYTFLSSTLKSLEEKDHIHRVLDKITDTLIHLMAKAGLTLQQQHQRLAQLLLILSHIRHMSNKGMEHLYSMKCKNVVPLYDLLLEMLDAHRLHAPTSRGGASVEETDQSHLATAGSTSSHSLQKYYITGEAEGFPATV
Procedure: The human CALUX® assays were used to measure the impact of test compounds on estrogen and androgen pathways. […] Chemicals can activate (or inactivate, in the case of an antagonistic activity) a ligand-specific pathway by binding to the receptor (ER, AR), after which the receptor-ligand complex binds to specific DNA REs […], resulting in increased (or decreased) cellular expression of a marker protein (e.g., luciferase).
Chemicals were dissolved and diluted in DMSO. […] The cytotoxicity of each test chemical was assessed using the U2-OS based cytotoxicity CALUX bioassay. Concentrations causing >20% reduction of luminescence were considered cytotoxic. […] Luciferase production was quantified by measuring luminescence following addition of luciferin. For antagonist assays, a fixed concentration of receptor agonist was co-incubated with a range of concentrations of the test chemical. […] For the AR assays, dihydrotestosterone was the positive control for agonistic effects and flutamide was the positive control for antagonist effects.
Each test chemical was tested in triplicates in two independent experiments.

Structure (SMILES)	aromatase inhibition outcome [1]	inhibition of control specific binding to the ER (human (non-selective) ER)	Lowest Effective Concentration (LEC), ER agonism (ERα) [µM]	ER binding outcome (human (non-selective) ER)	IC50 (human (non-selective) ER; follow-up dose–response assay) [nM]	Ki (human (non-selective) ER; follow-up dose–response assay) [nM]
O=c1c(-c2ccc(O)cc2)coc2cc(O)ccc12 [Daidzein, daidzein]	lack of binding	more than 50%	0.1	–	–	–
C[C@]12CCC(=O)C[C@@H]1CC[C@@H]1[C@@H]2CC[C@@]2(C)[C@H]1CC[C@]2(C)O [Mestanolone, mestanolone, reference compound]	lack of binding	more than 50%	0.028	confirmed to bind to the ER	1600	520
